This note sets out measurements from paper PMC5796108, “Effects of Acanthopanax senticosus on Brain Injury Induced by Simulated Spatial Radiation in Mouse Model Based on Pharmacokinetics and Comparative Proteomics” (International Journal of Molecular Sciences, 2018).

Like-named read-outs stand apart in the source and are kept apart here.

This data set in a line: Pharmacokinetics of syringin and eleutheroside E in mice's serum after oral AS extract (HPLC, PKsolver). Type of data set: in vivo, Kun-Ming mice. To be noted: oral AS extract 235.7 mg/kg; for MRT inf: read-out: MRT(0→∞). As to the method: The radiation lasted 30 min. […] The serum was preserved at −20 °C standby.
The content of syringin and eleutheroside E in the samples for each time points was detected by HPLC. An Agilent 1100 series liquid chromatograph (Agilent Technologies, Santa Clara, CA, USA), equipped with a quaternary gradient pump and a UV detector was used. A HPLC method was developed using a reversed-phase C18 column (Agilent-TC, 250 mm × 4.6 mm, 5 μm i.d.) with the column temperature at 30 °C. […] The retention times are 6.041 min and 8.500 min for Syringin and eleutheroside E respectively. Contents of syringin and eleutheroside E were expressed in each case as nanograms of syringin and eleutheroside E per milliliter of mice serum.

The mark [1] stands for this setting: Radiation-AS-Treatment (60Co-γ, 4 Gy).
Setting [2] is: male, Kun-Ming, mouse, po, 235.7 mg/kg, Normal-AS-Treatment.
Setting [3] is: male, Kun-Ming, mouse, po, 235.7 mg/kg, Radiation-AS-Treatment (60Co-γ, 4 Gy).

Regarding `COc1cc([C@H]2OC[C@@H]3[C@@H]2CO[C@H]3c2cc(OC)c(O[C@@H]3O[C@H](CO)[C@@H](O)[C@H](O)[C@H]3O)c(OC)c2)cc(OC)c1O[C@@H]1O[C@H](CO)[C@@H](O)[C@H](O)[C@H]1O` [Eleutheroside E], where the note is “Normal-AS-Treatment”, the “AUC(0→∞)” value is given as 9.93 × 10^3 ± 1.81 × 10^3 ng⋅h⋅mL^−1, the CL is on record as 8.30 × 10^−2 ± 7.32 × 10^−3 L⋅h^−1⋅g^−1, the highest concentration (Cmax) was 2.07 × 10^3 ± 6.61 × 10^2 ng⋅mL^−1 and the “MRT(0→∞)” value was 14.8 ± 0.597 h. In addition, where the note is “Normal-AS-Treatment”, the time to peak (Tmax) was 0.5 ± 0.192 h and the t1/2 is 17.2 ± 0.722 h. Besides, under setting [1], the “AUC(0→∞)” value is on record as 1.20 × 10^4 ± 3.63 × 10^3 ng⋅h⋅mL^−1, the CL is 6.89 × 10^−2 ± 7.17 × 10^−3 L⋅h^−1⋅g^−1, the maximum concentration (Cmax) is given as 2.11 × 10^3 ± 5.93 × 10^2 ng⋅mL^−1 and the “MRT(0→∞)” value was determined as 21.1 ± 0.701 h. For the same compound, under setting [1], the Tmax was 0.5 ± 0.321 h and the t1/2 was 2.51 × 10^1 ± 5.56 × 10^0 h.
Take `COc1cc(/C=C/CO)cc(OC)c1O[C@@H]1O[C@H](CO)[C@@H](O)[C@H](O)[C@H]1O` [Syringin]: the CL is, setting by setting: (Normal-AS-Treatment) 2.91 × 10^0 ± 5.65 × 10^−1 L⋅h^−1⋅g^−1; under setting [1], 1.54 × 10^0 ± 1.86 × 10^−1 L⋅h^−1⋅g^−1. For the same compound, the Vd (Normal-AS-Treatment) is 2.72 × 10^1 ± 8.73 × 10^−1 L⋅g^−1 and the Vd under setting [1] was 2.17 × 10^1 ± 9.19 × 10^−1 L⋅g^−1. The time to peak (Tmax) was found to be 0.5 ± 0.237 h under setting [1] and 0.5 h (male, Kun-Ming, mouse, Normal-AS-Treatment, read-out: Tmax). Also, the AUC(0-inf) was determined as 283 ng·h/mL under setting [2] and 534 ng·h/mL under setting [3]. In addition, the half-life by setting is: under setting [2], 6.47 h; under setting [3], 9.72 h. In addition, the Cmax is, setting by setting: (male, Kun-Ming, mouse, po, 235.7 mg/kg, Normal-AS-Treatment, read-out: Cmax) 170 ng/mL; (male, Kun-Ming, mouse, po, 235.7 mg/kg, Radiation-AS-Treatment (60Co-γ, 4 Gy), read-out: Cmax) 212 ng/mL. In addition, the MRT inf by setting is: under setting [2], 4.58 h; under setting [3], 5.95 h.

Usually Cmax stands for the maximum level reached in the sampled fluid or tissue. A word on the Tmax: it is the time at which the peak concentration occurs. The term AUC(0-inf) denotes the area under the concentration-time curve extrapolated to infinity. A high value points to high exposure. A word on the half-life: it is how long it takes for the measured level to halve. Low values mean rapid decline, high ones slow decline.
